Several values for one entry are separate records, joined by “and”; a condition that tells them apart may be missing. Identical values can stand only once. Entries after “also recorded” stand apart in the source; their conditions may differ.
Columns and labels:
VP-16-induced alopecia = experiment: VP-16 (Etoposide)-induced alopecia in young rats; type: in vivo
Protocol: Twelve 7 day old rats were randomized in two groups. Group I was treated daily with buffer 0.1 ml s.c. for four days. The second Group was treated daily with Vitamin D3 50µg s.c. over head for four days. After stopping the buffer or Vitamin D3 treatment, all rats received 1.5 mg/kg i.p. of VP-16 (Etoposide) daily for three days.
(§1) Topical Application of 1,25-dihydroxyvitamin D3: • 1,25-Dihydroxyvitamin D3 was dissolved in absolute ethanol and applied topically with an applicator. Control animals were similarly treated with the same amount of ethanol. Animals were then kept individually separated for a period of three hours following which the treated area was carefully washed with soap and water and dried. Treatment was given daily beginning on day 5 after birth and ending on day 10.
Chemotherapy: • All chemotherapies were given I.P. and started at 11 days of age. CTX, 35 mg/kg, was given for one day only. VP-16, 1.5 mg/kg, was given for three days. For CTX and ADM combination, CTX, 25 mg/kg was given for one day and ADM, 2.5 mg/kg, for three days. […] Alopecia was recorded on the tenth day from beginning chemotherapy.
A total of 4 experiments were carried out. In the first experiment, protection from Cytoxan-induced alopecia was examined. The experimental group was pretreated with 0.2 µg of 1,25-dihydroxyvitamin D, in 0.15 ml of absolute ethanol applied topically over the head and neck and the control group received 0.15 ml of alcohol. […] The second experiment was carried out under similar conditions to examine protection from VP-16-induced alopecia. […] The third experiment was designed to examine protection from alopecia induced by Cytoxan-Adriamycin combination. There were 11 rats in each group. […] In the fourth experiment, protection from VP-16-induced alopecia was similarly examined except that the dose of 1,25-dihydroxyvitamin D3 was reduced to 0.1 µg in 0.1 ml absolute ethanol applied topically over the head area only.
as §1, with “RO 23-7553 (1,25 dihydroxy-16-ene-23-yne-cholecalciferol)” for “Topical Application of 1,25-dihydroxyvitamin D3: • 1,25-Dihydroxyvitamin D3”, “9” for “5”, “14.” for “10.”
On day 15 all animals received VP-16, 1.5 mg/kg i.p., for three days. Alopecia was recorded on day 25.
Thirteen rats were randomized in two groups. Experimental group, 7 rats; control group, 6 rats. The experimental group was pretreated with 1 µg of RO 23-7553 in 0.2 ml absolute ethanol applied topically over the neck and back and the control group received 0.2 ml of absolute ethanol.

[1] = test system: Cytoxan/Adriamycin-Induced Alopecia; experiment: Alopecia induced by Cytoxan/Adriamycin combination in young rats; type: in vivo, Sprague Dawley rats
Protocol: Eight 4-day old Sprague Dawley rats were randomized in two groups of 4 rats each. […] Group II received buffer injections and served as controls. One day after stopping EGF or buffer injections all rats received Cytoxan 25 mg/kg i.p. x 1 day and Adriamycin 2.5 mg/kg i.p. x 3 days. In Group II, all rats had 3+ alopecia over head and neck area. In contrast, in Group I one rat had mild alopecia, one rat minimal alopecia, and two rats no detectable alopecia over head and neck. (FIGURE 5).
as §1
Chemotherapy: • All chemotherapies were given I.P. and started at 11 days of age. CTX, 35 mg/kg, was given for one day only. VP-16, 1.5 mg/kg, was given for three days. For CTX and ADM combination, CTX, 25 mg/kg was given for one day and ADM, 2.5 mg/kg, for three days. At these doses neither CTX nor ADM alone will produce alopecia. Alopecia was recorded on the tenth day from beginning chemotherapy.
A total of 4 experiments were carried out. […]

ARA-C-induced alopecia = ARA-C-induced alopecia in young rats; type: in vivo, Sprague Dawley rats; conditions: Alopecic drug Cytarabine (ARA-C) 50 mg/kg i.p. daily for 7 days, 50 µg daily i.p. or s.c. for 4 days prior to chemotherapy, 1 experiment, 8 animals, uniformly observed in all treated animals
Protocol: Sprague Dawley rats were purchased from Charles River Laboratories, Wilmington, MA. Cytosar-U (ARA-C) was from the Upjohn Company, Kalamazoo, MI. Receptor grade EGF from mouse submaxillary glands, human recombinant EGF, dimethyl sulfoxide (DMSO) and Vitamin D3 were purchased from Sigma Chemical Co., St. Louis, MO. aFGF was purchased from AMGEN Corp., Thousand Oaks, CA.
All rats from each experiment were treated with ARA-C 50 mg/kg intraperitoneally (i.p.) daily for 7 days. For subcutaneous (s.c.) injections, EGF and FGF were prepared in PBS 1% BSA. Alopecia was always recorded on day 12 of experiment, and scored as previously described (Hussein et al, Science, 249:1564-1566, 1990; Jimenez et al, FASEB J., 1991).
For topical treatment, murine EGF was prepared as follows: One vial of EGF (100 µg) was dissolved in 0.2 ml of PBS 1% BSA and 0.12 ml of this solution was added to 0.48 of DMSO. Three hours prior to ARA-C injection, 0.1 ml of the EGF-DMSO mixture was applied to each rat over a 1 cm^2 area between the shoulders using a rubber tip applicator. Rats were then kept individually separated for a period of three hours, following which the treated area was carefully washed with soap and water and dried. Treatment was continued for 7 days. […]
Fourteen 7-day old rats were randomized in two groups. […] Alopecia was recorded on day 12 of experiment. […]

Cytoxan-induced alopecia = Cytoxan-induced alopecia in young rats; type: in vivo
[2] = test system: EGF receptors on breast cancer cells; conditions: cited from earlier work
hair growth [3] = experiment: Stimulation of hair regrowth on the shaven back of rats; type: in vivo, Sprague Dawley rats
Protocol: The backs of nineteen 25 day old Sprague Dawley rats were shaven and randomized in two groups.
Group I (control 10 rats) received 0.1 ml of ethanol applied topically once daily to the shaven area for 14 days.
Group II (Calcitriol 9 rats) received 50 ng of 1,25-dihydroxyvitamin D3 in 0.1 ml of ethanol applied topically once daily to the shaven area for 14 days.
On day 15 stimulation of hair regrowth was assessed by reshaving an area 6 cm x 6 cm in diameter. The hair was collected and weighed. The difference between two groups was highly statistically significant. P. value 0.003 (see Table III and Figure 11).

hair growth [4] = experiment: as above; type: in vivo, Sprague Dawley rats; conditions: observation in treated rats during the chemotherapy-induced alopecia studies
[5] = test system: EGF receptors on a cell line established from rat calvaria; conditions: cited from earlier work

Q: Which “protection from VP-16-induced alopecia” value (VP-16-induced alopecia; pretreatment 1 µg in 0.2 ml absolute ethanol topically over neck and back, day 9 to day 14 after birth, VP-16 1.5 mg/kg i.p. three days from day 15, recorded on day 25, 7 rats, all animals) does the source give for C=C1/C(=C\C=C2/CCC[C@]3(C)C([C@H](C)CC#CC(C)(C)O)=CC[C@@H]23)C[C@@H](O)C[C@@H]1O [RO 23-7553, 1,25 dihydroxy-16-ene-23-yne-cholecalciferol] here?
A: protected

Q: What does the source list for C=C1CC[C@H](O)C/C1=C/C=C1\CCC[C@]2(C)[C@@H]([C@H](C)CCCC(C)C)CC[C@@H]12 [Vitamin D3]?
A: Protection from alopecia ([1]; Adriamycin 2.5 mg/kg i.p. daily for 3 days plus Cytoxan 25 mg/kg single injection, 50 µg daily i.p. or s.c. for 4 days prior to chemotherapy, 6 experiments, 77 animals, uniformly observed in all treated animals): excellent protection and Yes*; Protection from alopecia (ARA-C-induced alopecia): excellent protection and Yes*; Protection from alopecia (Cytoxan-induced alopecia; Alopecic drug Cytoxan (CTX) 32.5 mg/kg single injection, 50 µg daily i.p. or s.c. for 4 days prior to chemotherapy, 7 experiments, 89 animals, uniformly observed in all treated animals, 32.5 mg/kg): excellent protection and Yes*; Protection from alopecia (VP-16-induced alopecia; 50µg s.c. over head daily for four days, then VP-16 1.5 mg/kg i.p. daily for three days, 7 day old rats): protected; Protection from alopecia (VP-16-induced alopecia; Alopecic drug Etoposide (VP-16) 1.5 mg/kg i.p. daily for 3 days, 50 µg daily i.p. or s.c. for 4 days prior to chemotherapy, 2 experiments, 22 animals, uniformly observed in all treated animals): excellent protection and Yes*

Q: Which results are given for C=C1/C(=C\C=C2/CCC[C@]3(C)[C@@H]([C@H](C)CCCC(C)(C)O)CC[C@@H]23)C[C@@H](O)C[C@@H]1O [1,25-dihydroxyvitamin D3]?
A: effect on EGF receptors on breast cancer cells [2]: increase; Hair Weight, Mean S.E.M. (hair growth [3]; 50 ng in 0.1 ml ethanol topically once daily for 14 days, 9 rats, day 15, P. value 0.003 versus control (113 ± 8)): 164 ± 13 Mg.; Hair Weight (individual rats) (hair growth [3]; 50 ng in 0.1 ml ethanol topically once daily to the shaven area for 14 days, reshaved area 6 cm x 6 cm on day 15, listed as Calcitriol): 135 Mg. and 202 Mg. and 143 Mg. and 150 Mg. and 253 Mg. and 130 Mg. and 177 Mg. and 140 Mg. and 147 Mg.; protection from alopecia induced by Cytoxan-Adriamycin combination ([1]; pretreatment 0.2 µg in 0.15 ml absolute ethanol topically over head and neck, CTX 25 mg/kg one day and ADM 2.5 mg/kg three days I.P., 11 rats, all rats): protected; protection from Cytoxan-induced alopecia (Cytoxan-induced alopecia; pretreatment 0.2 µg in 0.15 ml absolute ethanol topically over head and neck, day 5 to day 10 after birth, CTX 35 mg/kg I.P. one day, recorded on tenth day, all animals): protected; coat of hair and hair length in the treated area (hair growth [4]): better coat of hair and longer hair in the treated area; protection from VP-16-induced alopecia (VP-16-induced alopecia; applied topically 0.5 µg daily in 50% ethanol or DMSO): protected; protection from VP-16-induced alopecia (VP-16-induced alopecia; pretreatment 0.1 µg in 0.1 ml absolute ethanol topically over the head area only, VP-16 1.5 mg/kg I.P. for three days, all rats): protected primarily at the site of 1,25-dihydroxyvitamin D3 application; also recorded: less generalized and was more limited to the site of application; protection from VP-16-induced alopecia (VP-16-induced alopecia; pretreatment 0.2 µg in 0.15 ml absolute ethanol topically over head and neck, VP-16 1.5 mg/kg I.P. for three days, recorded on tenth day, all rats): protected; also recorded: not limited to the site of application but involved the entire body; effect on EGF receptors on a cell line established from rat calvaria [5]: increase

Source: EP0591378B1, “METHOD OF PREVENTING AND TREATING CHEMOTHERAPY-INDUCED ALOPECIA” (Hairbiotech, Inc., priority 1991, dated 1993)
